We go through seven molecules from ChEMBL document CHEMBL3217560, “Synthesis and binding affinities for sst receptors of cyclic peptoid SRIF-mimetics” (Medchemcomm, 2012).

Positions of bridges follow the written chain, without caps; N, C: chain ends. Non-standard residues stand in square brackets, D forms with d. Residues, ends and D or L forms follow the SMILES beside them. *: point of attachment. Threoninol(2S,3R) = C[C@@H](O)[C@H](CO)N*

By Ki is commonly meant a measure of affinity in units of concentration, obtained from inhibition or displacement. Read a low Ki as tighter binding.

The target in assay [1] is Somatostatin receptor type 1 (Homo sapiens, UniProt P30872). As to the kind of experiment: Displacement of [125I]-somatostatin from human sst1 receptor after 2 hrs by beta scintillation counting analysis. On the technique in general: Displacement assays read how much labelled ligand stays bound in the presence of the test substance.
Somatostatin receptor type 1, sequence (P30872 whole entry): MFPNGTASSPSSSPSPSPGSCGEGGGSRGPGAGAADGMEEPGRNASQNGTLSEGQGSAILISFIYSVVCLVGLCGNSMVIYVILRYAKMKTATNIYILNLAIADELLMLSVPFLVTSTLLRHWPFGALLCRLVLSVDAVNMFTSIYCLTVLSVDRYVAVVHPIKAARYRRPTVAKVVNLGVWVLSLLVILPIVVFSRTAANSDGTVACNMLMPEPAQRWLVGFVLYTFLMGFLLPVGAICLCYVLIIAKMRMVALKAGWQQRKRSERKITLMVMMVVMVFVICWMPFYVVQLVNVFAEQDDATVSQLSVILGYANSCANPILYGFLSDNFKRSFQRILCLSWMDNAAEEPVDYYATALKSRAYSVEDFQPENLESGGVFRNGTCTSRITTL
For assay [2], the target named is Somatostatin receptor type 3 (Homo sapiens, UniProt P32745). In words: Displacement of [125I]-somatostatin from human sst3 receptor after 2 hrs by beta scintillation counting analysis.
Somatostatin receptor type 3, sequence (P32745 whole entry): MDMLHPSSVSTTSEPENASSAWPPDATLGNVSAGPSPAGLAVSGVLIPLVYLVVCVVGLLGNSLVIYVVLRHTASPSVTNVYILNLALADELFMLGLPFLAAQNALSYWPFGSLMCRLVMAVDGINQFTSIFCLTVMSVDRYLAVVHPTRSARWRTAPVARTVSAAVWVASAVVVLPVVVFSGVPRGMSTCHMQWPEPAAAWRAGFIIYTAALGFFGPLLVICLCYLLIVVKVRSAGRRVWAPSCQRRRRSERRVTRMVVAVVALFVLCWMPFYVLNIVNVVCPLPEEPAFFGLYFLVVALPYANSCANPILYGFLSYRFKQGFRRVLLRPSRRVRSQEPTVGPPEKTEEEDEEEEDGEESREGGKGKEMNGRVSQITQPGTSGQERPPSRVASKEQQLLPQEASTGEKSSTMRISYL
In assay [3] the target is Somatostatin receptor type 2 (Homo sapiens, UniProt P30874). In words: Displacement of [125I]-somatostatin from human sst2a receptor after 2 hrs by beta scintillation counting analysis.
Somatostatin receptor type 2, sequence (P30874 whole entry): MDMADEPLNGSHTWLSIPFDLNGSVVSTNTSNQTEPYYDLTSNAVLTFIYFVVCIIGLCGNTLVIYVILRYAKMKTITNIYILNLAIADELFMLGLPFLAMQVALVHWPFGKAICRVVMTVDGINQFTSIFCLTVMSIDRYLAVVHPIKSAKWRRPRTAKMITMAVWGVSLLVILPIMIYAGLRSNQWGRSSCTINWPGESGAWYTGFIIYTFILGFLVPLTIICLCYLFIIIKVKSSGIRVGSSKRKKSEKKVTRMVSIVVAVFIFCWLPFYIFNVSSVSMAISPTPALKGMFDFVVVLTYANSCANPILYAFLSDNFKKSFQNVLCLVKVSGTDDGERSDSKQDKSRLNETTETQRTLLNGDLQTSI
For assay [4], the target named is Somatostatin receptor type 4 (Homo sapiens, UniProt P31391). As to the kind of experiment: Displacement of [125I]-somatostatin from human sst4 receptor after 2 hrs by beta scintillation counting analysis.
Somatostatin receptor type 4, sequence (P31391 whole entry): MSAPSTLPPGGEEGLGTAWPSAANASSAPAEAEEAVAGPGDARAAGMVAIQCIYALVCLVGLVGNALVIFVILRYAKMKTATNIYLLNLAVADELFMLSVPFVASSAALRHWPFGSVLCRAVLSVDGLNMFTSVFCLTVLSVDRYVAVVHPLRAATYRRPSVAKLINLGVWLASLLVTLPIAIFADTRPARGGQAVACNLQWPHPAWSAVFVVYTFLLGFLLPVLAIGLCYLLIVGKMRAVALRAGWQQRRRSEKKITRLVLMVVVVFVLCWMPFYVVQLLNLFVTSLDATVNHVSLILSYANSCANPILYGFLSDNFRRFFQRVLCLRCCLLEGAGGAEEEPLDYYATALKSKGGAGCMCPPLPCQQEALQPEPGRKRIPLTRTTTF
Assay [5] addresses Somatostatin receptor type 5 (Homo sapiens, UniProt P35346). In words: Displacement of [125I]-somatostatin from human sst5 receptor after 2 hrs by beta scintillation counting analysis.
The species named for assay [6] is Homo sapiens. In words: Selectivity ratio of Ki for human sst2a receptor to Ki or human sst4 receptor.
The species named for assay [7] is Homo sapiens. In words: Selectivity ratio of Ki for human sst1 receptor to Ki for human sst4 receptor.

Somatostatin receptor type 5, sequence (P35346 whole entry): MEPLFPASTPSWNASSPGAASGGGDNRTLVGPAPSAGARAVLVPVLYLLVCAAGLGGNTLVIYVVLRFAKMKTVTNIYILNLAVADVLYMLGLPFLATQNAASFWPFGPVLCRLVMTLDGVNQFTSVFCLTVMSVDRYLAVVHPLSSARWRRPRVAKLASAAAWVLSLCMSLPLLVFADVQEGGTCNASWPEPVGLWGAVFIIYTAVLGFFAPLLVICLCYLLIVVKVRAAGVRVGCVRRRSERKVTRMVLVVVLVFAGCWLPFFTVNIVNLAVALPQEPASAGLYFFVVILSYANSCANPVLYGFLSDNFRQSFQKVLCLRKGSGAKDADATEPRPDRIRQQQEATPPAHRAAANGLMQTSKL

For the molecule `C[C@@H](O)CN1CCC(=O)N(Cc2ccccc2)CCC(=O)N(Cc2ccccc2)CCC(=O)N(CCc2c[nH]c3ccccc23)CC(=O)N(CCCCN)CCC1=O`, the inhibitory constant (Ki) in assay [1] was 16 µM; in assay [2], 2.4 µM; in assay [3], 27 µM; in assay [4] it was 7.2 µM; in assay [5], 2.1 µM. Further, the inhibition entry in assay [1], in assay [2], in assay [3], in assay [4] and in assay [5] was “Dose-dependent effect” in each case.
Regarding `C[C@@H](O)CN1CCC(=O)N(Cc2ccccc2)CCC(=O)N(CCc2c[nH]c3ccccc23)CCC(=O)N(CCCCN)CCC1=O`, the Ki in assay [1] was found to be 102 µM; in assay [2], 22 µM; in assay [3], 198 µM; in assay [4], 4.9 µM; in assay [5] it was 28 µM. The inhibition result in assay [1], in assay [2], in assay [3], in assay [4] and in assay [5] was “Dose-dependent effect” throughout. In addition, the Ratio Ki in assay [6] is 40; in assay [7], 20.
In the case of `C[C@@H](O)[C@H](CO)NC(=O)[C@@H]1CSSC[C@H](NC(=O)[C@H](N)Cc2ccccc2)C(=O)N[C@@H](Cc2ccccc2)C(=O)N[C@H](Cc2c[nH]c3ccccc23)C(=O)N[C@@H](CCCCN)C(=O)N[C@@H]([C@@H](C)O)C(=O)N1` (H-[dF]CF[dW]KTC-{Threoninol(2S,3R)}; disulfide 2-7), the inhibition entry in assay [1], in assay [2], in assay [3] and in assay [4] was “Dose-dependent effect” each time.
For the molecule `COC(=O)CCN(Cc1ccccc1)C(=O)CCN(C[C@@H](C)O)C(=O)CCN(CCCCN)C(=O)CN(CCc1c[nH]c2ccccc12)C(=O)CCN(Cc1ccccc1)C(C)=O`, the Ki in assay [1] worked out at 16 µM; in assay [2], 3.1 µM; in assay [3], 110 µM; in assay [4] it was 21 µM; in assay [5] it was 13.2 µM. For the same molecule, the inhibition result in assay [1], in assay [2], in assay [3], in assay [4] and in assay [5] was “Dose-dependent effect” each time.
As for `C[C@@H](O)CN1CCC(=O)N(Cc2ccccc2)CCC(=O)N(Cc2ccccc2)CCC(=O)N(CCc2c[nH]c3ccccc23)CCC(=O)N(CCCCN)CCC1=O`, the Ki in assay [1] is 8.2 µM; in assay [2], 4.6 µM; in assay [3], 44 µM; in assay [4], 10 µM; in assay [5], 1.7 µM. For the same molecule, the inhibition result in assay [1], in assay [2], in assay [3], in assay [4] and in assay [5] was “Dose-dependent effect” throughout.
Turning to `C[C@@H](O)CN1CCC(=O)N(Cc2ccccc2)CCC(=O)N(CCc2c[nH]c3ccccc23)CC(=O)N(CCCCN)CCC1=O`, the inhibition constant Ki was 153 µM in assay [1]; 17 µM in assay [2]; 176 µM in assay [3]; 20 µM in assay [4]; 9.5 µM in assay [5]. Moreover, the inhibition result in assay [1], in assay [2], in assay [3], in assay [4] and in assay [5] was “Dose-dependent effect” throughout.
Regarding `COC(=O)CCN(Cc1ccccc1)C(=O)CCN(C[C@@H](C)O)C(=O)CCN(CCCCN)C(=O)CCN(CCc1c[nH]c2ccccc12)C(=O)CCN(Cc1ccccc1)C(C)=O`, the Ki came out at 12 µM in assay [1]; 2.7 µM in assay [2]; 55 µM in assay [3]; 12 µM in assay [4]; 11 µM in assay [5]. The inhibition result in assay [1], in assay [2], in assay [3], in assay [4] and in assay [5] was “Dose-dependent effect” each time.
